Experimental data as given in ChEMBL document CHEMBL5344412, “Dual degradation mechanism of GPX4 degrader in induction of ferroptosis exerting anti-resistant tumor effect” (Eur J Med Chem, 2023).
Active and inactive are the calls of the source. No cut-off for these calls is given here.

Experiments:
NCI-H1650 = test: Antiproliferative activity against human NCI-H1650 cells assessed as inhibition of cell growth incubated for 24 hrs by MTT assay; type: functional, cell-based; details: NCI-H1650, 24 h
[1] = target: T1, Phospholipid hydroperoxide glutathione peroxidase GPX4 (Homo sapiens) (UniProt P36969); test: Induction of GPX4 degradation in human HT-1080 cells at 0.1 uM incubated for 6 hrs in presence of […] by Western blot analysis; type: cell-based
T1 sequence (whole entry): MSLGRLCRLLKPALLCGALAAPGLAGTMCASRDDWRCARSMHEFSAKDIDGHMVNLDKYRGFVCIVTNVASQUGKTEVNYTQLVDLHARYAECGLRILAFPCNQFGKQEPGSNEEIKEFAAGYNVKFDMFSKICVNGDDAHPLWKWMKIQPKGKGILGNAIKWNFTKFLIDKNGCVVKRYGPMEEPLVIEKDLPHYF

[2] = target: T1, Phospholipid hydroperoxide glutathione peroxidase GPX4 (Homo sapiens); test: Induction of GPX4 degradation in human HT-1080 cells at 0.1 uM by Western blot analysis; type: cell-based
Calu-1 = test: Antiproliferative activity against human Calu-1 cells assessed as inhibition of cell growth incubated for 24 hrs by MTT assay; type: functional, cell-based; details: Calu-1, 24 h
[3] = target: T1, Phospholipid hydroperoxide glutathione peroxidase GPX4 (Homo sapiens); test: Induction of GPX4 degradation in human HT-1080 cells at 0.1 uM incubated for 24 hrs in presence of 20 uM of liproxstatin-1 by Western blot analysis; type: cell-based
HT-1080 [4] = test: Antiproliferative activity against human HT-1080 cells assessed as inhibition of cell growth incubated for 24 hrs by MTT assay; type: functional, cell-based; details: HT-1080, 24 h
[5] = target: T1, Phospholipid hydroperoxide glutathione peroxidase GPX4 (Homo sapiens); test: Induction of GPX4 degradation in human HT-1080 cells at 0.1 uM incubated for 6 hrs in presence of PYR41 by Western blot analysis; type: cell-based
[6] = Antiproliferative activity against human Gefitinib-resistant H1650 cell assessed as inhibition of cell growth incubated for 24 hrs by MTT assay; type: functional, cell-based
[7] = target: T1, Phospholipid hydroperoxide glutathione peroxidase GPX4 (Homo sapiens); test: Induction of GPX4 degradation in human HT-1080 cells at 100 nM incubated for 6 hrs relative to control; type: cell-based
[8] = target: T1, Phospholipid hydroperoxide glutathione peroxidase GPX4 (Homo sapiens); test: Induction of GPX4 degradation in human HT-1080 cells at 0.1 uM incubated for 24 hrs in presence of ZVF by Western blot analysis; type: cell-based
[9] = target: T1, Phospholipid hydroperoxide glutathione peroxidase GPX4 (Homo sapiens); test: Induction of GPX4 degradation in human Calu-1 cells at 0.3 uM measured for 8 hrs by Western blot analysis; type: cell-based
[10] = target: T1, Phospholipid hydroperoxide glutathione peroxidase GPX4 (Homo sapiens); test: Induction of GPX4 degradation in human HT-1080 cells at 0.1 uM incubated for 24 hrs in presence of Nec-1 by Western blot analysis; type: cell-based
[11] = target: T2, Phospholipid hydroperoxide glutathione peroxidase GPX4 (Homo sapiens, UniProt P36969); test: (§1) Induction of GPX4 degradation in human HT-1080 cells measured for 6 hrs by Western blot analysis; type: cell-based
T2 sequence (P36969 whole entry): T1 sequence (whole entry)

[12] = target: T1, Phospholipid hydroperoxide glutathione peroxidase GPX4 (Homo sapiens); test: as §1; type: cell-based; details: dose 0.3-1000 nM
[13] = target: T1, Phospholipid hydroperoxide glutathione peroxidase GPX4 (Homo sapiens); test: Induction of GPX4 degradation in human HT-1080 cells at 0.1 uM pretreated for 2 hrs followed by V5 addition and measured after 6 hrs by Western blot analysis; type: cell-based; details: time 8.0 hrs
[14] = target: T2, Phospholipid hydroperoxide glutathione peroxidase GPX4; test: (§2) Induction of GPX4 degradation in human NCI-H1650 cells incubated for 24 hrs by Western blot analysis; type: cell-based
[15] = target: T1, Phospholipid hydroperoxide glutathione peroxidase GPX4 (Homo sapiens); test: as §2; type: cell-based; details: dose 10-1000 nM
[16] = target: T2, Phospholipid hydroperoxide glutathione peroxidase GPX4; test: (§3) Induction of GPX4 degradation in human Gefitinib-resistant H1650 cells incubated for 24 hrs by Western blot analysis; type: cell-based, Gefitinib-resistant H1650 cell
[17] = target: T1, Phospholipid hydroperoxide glutathione peroxidase GPX4 (Homo sapiens); test: as §3; type: cell-based; details: Gefitinib-resistant H1650 cell, dose 10-1000 nM
HT-1080 [18] = test: Induction of ferroptosis in human HT-1080 cells assessed as increase in cell survival at 0.1 uM incubated for 24 hrs in presence of 0.020 uM of liproxstatin-1 by MTT assay; type: functional
[19] = target: T1, Phospholipid hydroperoxide glutathione peroxidase GPX4 (Homo sapiens); test: Induction of GPX4 degradation in human HT-1080 cells at 0.1 uM measured for 1 hr by Western blot analysis; type: cell-based
[20] = target: T1, Phospholipid hydroperoxide glutathione peroxidase GPX4 (Homo sapiens); test: Induction of GPX4 degradation in human Calu-1 cells at 0.3 uM measured for 4 hrs by Western blot analysis; type: cell-based
HT-1080 [21] = test: Induction of ROS production in human HT-1080 cells assessed as increase in ROS positive cells at 0.1 uM preincubated with liproxstatin-1 for 2 hrs followed by compound addition and measured after for 7 hrs by C11-BODIPY581/891 staining based flow cytometry analysis; type: functional, cell-based
[22] = target: T1, Phospholipid hydroperoxide glutathione peroxidase GPX4 (Homo sapiens); test: Induction of GPX4 degradation in human HT-1080 cells at 0.1 uM measured for 24 hrs by Western blot analysis; type: cell-based
HT-1080 [23] = test: Induction of ferroptosis in human HT-1080 cells assessed as increase in cell survival at 0.1 uM incubated for 24 hrs in presence of 0.061 uM of liproxstatin-1 by MTT assay; type: functional
HT-1080 [24] = test: Induction of ferroptosis in human HT-1080 cells assessed as increase in cell survival at 0.1 uM incubated for 24 hrs in presence of 5 uM of liproxstatin-1 by MTT assay; type: functional
HT-1080 [25] = test: Induction of ferroptosis in human HT-1080 cells assessed as increase in cell survival at 0.1 uM incubated for 24 hrs in presence of 0.006 uM of liproxstatin-1 by MTT assay; type: functional
HT-1080 [26] = test: Induction of ferroptosis in human HT-1080 cells assessed as increase in cell survival at 0.1 uM incubated for 24 hrs in presence of 0.185 uM of liproxstatin-1 by MTT assay; type: functional
HT-1080 [27] = test: Induction of ferroptosis in human HT-1080 cells assessed as increase in cell survival at 0.1 uM incubated for 24 hrs in presence of 0.556 uM of liproxstatin-1 by MTT assay; type: functional
HT-1080 [28] = test: Induction of ROS production in human HT-1080 cells assessed as increase in ROS positive cells at 0.1 uM incubated for 4 hrs by C11-BODIPY581/891 staining based flow cytometry analysis; type: functional, cell-based
[29] = target: T1, Phospholipid hydroperoxide glutathione peroxidase GPX4 (Homo sapiens); test: Induction of GPX4 degradation in human HT-1080 cells at 0.1 uM incubated for 24 hrs in presence of Baf-A1 by Western blot analysis; type: cell-based
[30] = target: T2, Phospholipid hydroperoxide glutathione peroxidase GPX4; test: (§4) Induction of GPX4 degradation in human Calu-1 cells measured for 24 hrs by Western blot analysis; type: cell-based
[31] = target: T1, Phospholipid hydroperoxide glutathione peroxidase GPX4 (Homo sapiens); test: as §4; type: cell-based; details: dose 0.1-10000 nM
HT-1080 [32] = test: Induction of ferroptosis in human HT-1080 cells assessed as increase in cell survival at 0.1 uM incubated for 24 hrs in presence of 1.670 uM of liproxstatin-1 by MTT assay; type: functional
[33] = target: T1, Phospholipid hydroperoxide glutathione peroxidase GPX4 (Homo sapiens); test: Induction of GPX4 degradation in human NCI-H1650 cells at 0.3 uM incubated for 24 hrs by Western blot analysis; type: cell-based
[34] = Toxicity in Balb/c nude mouse xenografted with human HT-1080 cells assessed as change in body weight at 200 mg/kg, sc measured for 16 days; type: organism-based; details: in vivo, 384 h, time 16 day
[35] = target: T1, Phospholipid hydroperoxide glutathione peroxidase GPX4 (Homo sapiens); test: Induction of GPX4 degradation in human HT-1080 cells at 0.1 uM measured for 6 hrs by Western blot analysis; type: cell-based

With COC(=O)c1ccc([C@H]2c3[nH]c4ccccc4c3C[C@H](C(=O)OC)N2C(=O)CCl)cc1 the IC50 (NCI-H1650) was 7750 nM, the Activity [1] was “inactive” and the Activity [2] was “Active”. The IC50 (Calu-1) was 50 nM, the Activity [3] was “inactive” and the IC50 (HT-1080 [4]) was 130 nM. The Activity [5] was “inactive” and the IC50 [6] was 5520 nM.
Work on COC(=O)[C@H]1Cc2c([nH]c3ccccc23)[C@H](c2ccc(C(=O)N3CCN(CCCCCCCCCCCCCCN[C@H](C(=O)N4C[C@H](O)C[C@H]4C(=O)N[C@@H](C)c4ccc(-c5scnc5C)cc4)C(C)(C)C)CC3)cc2)N1C(=O)CCl yielded an Activity [7] of 55%.
Work on COC(=O)[C@H]1Cc2c([nH]c3ccccc23)[C@H](c2ccc(C(=O)N3CCN(CCCCCCCCCN[C@H](C(=O)N4C[C@H](O)C[C@H]4C(=O)N[C@@H](C)c4ccc(-c5scnc5C)cc4)C(C)(C)C)CC3)cc2)N1C(=O)CCl yielded an Activity [7] of 39%.
In the case of COC(=O)[C@H]1Cc2c([nH]c3ccccc23)[C@H](c2ccc(C(=O)N3CCN(CCCCCCCN[C@H](C(=O)N4C[C@H](O)C[C@H]4C(=O)N[C@@H](C)c4ccc(-c5scnc5C)cc4)C(C)(C)C)CC3)cc2)N1C(=O)CCl, the Activity [7] is reported as 36%.
Work on COC(=O)[C@H]1Cc2c([nH]c3ccccc23)[C@H](c2ccc(C(=O)N3CCN(CCCCCCCCCCCCN[C@H](C(=O)N4C[C@H](O)C[C@H]4C(=O)N[C@@H](C)c4ccc(-c5scnc5C)cc4)C(C)(C)C)CC3)cc2)N1C(=O)CCl yielded an Activity [7] of 60%.
With COC(=O)[C@H]1Cc2c([nH]c3ccccc23)[C@H](c2ccc(C(=O)N3CCN(CCCCCCCCCCCCCN[C@H](C(=O)N4C[C@H](O)C[C@H]4C(=O)N[C@@H](C)c4ccc(-c5scnc5C)cc4)C(C)(C)C)CC3)cc2)N1C(=O)CCl the Activity [8] was “inactive”, the Activity [9] was 100% and the Activity [10] was “inactive”. The IC50 (NCI-H1650) was 2100 nM, the EC50 [11] was 23.3 nM and the Activity [12] was “Dose-Dependent Effect”. The Activity [1] was “inactive”, the Activity [13] was “inactive” and the EC50 [14] was 42.7 nM. The Activity [15] was “Dose-Dependent Effect”, the EC50 [16] was 25.6 nM and the Activity [17] was “Dose-Dependent Effect”. The Activity (HT-1080 [18]) was 82.7%, the Activity [2] was “Active” and the IC50 (Calu-1) was 25 nM. The Activity [19] was “Active”, the Activity [20] was “Active” and the Activity (HT-1080 [21]) was “Active”. The Activity [3] was “Active”, the Activity [22] was “Active” and the Activity [7] was 63%. The Activity (HT-1080 [23]) was 82.7%, the IC50 (HT-1080 [4]) was 58 nM and the Activity (HT-1080 [24]) was 92.1%. The Activity [5] was “inactive”, the Activity (HT-1080 [25]) was 74.8% and the Activity (HT-1080 [26]) was 92.5%. The Activity (HT-1080 [27]) was 91.5%, the Activity (HT-1080 [28]) was “Active” and the Activity [29] was “inactive”. The IC50 [6] was 1560 nM, the EC50 [30] was 136 nM and the Activity [31] was “Dose-Dependent Effect”. For the same molecule, the Activity (HT-1080 [32]) was 88.5%, the Activity [33] was 100% and the Activity [34] was “Non-Toxic”. For the same molecule, the Activity [35] was 100%.
COC(=O)[C@H]1Cc2c([nH]c3ccccc23)[C@H](c2ccc(C(=O)N3CCN(CCCCCCCCCCCN[C@H](C(=O)N4C[C@H](O)C[C@H]4C(=O)N[C@@H](C)c4ccc(-c5scnc5C)cc4)C(C)(C)C)CC3)cc2)N1C(=O)CCl gave an Activity [7] of 52%.
Cc1onc(C(=O)N2CCN(C(c3ccc(Cl)cc3)c3ccc(Cl)cc3)CC2)c1[N+](=O)[O-] showed an IC50 (Calu-1) of 630 nM.
